Results from PMC11345828 (Journal of Medicinal Chemistry, 2024).
Several values for one entry are separate records, joined by “and”; a condition that tells them apart may be missing. Equal values may be shown once. Marks after values point to notes of the source that are not given here.

Key:
[1] = test system: K562 cell line; assay: cells; details: Homo sapiens, K562, read-out: K562 GI50
Experimental: (§1) NCI-H1048 were cultured in custom medium prepared by PanBioTech containing DMEM/F12 + 5% fetal calf serum, 0.005 mg/mL insulin, 0.01 mg/mL transferrin, 30 nM sodium selenite, 10 nM hydrocortisone, 10 nM β-estradiol and […] 2 mM L-glutamine.
(§2) Suspension cells were plated immediately before compound addition. Adherent cell lines were incubated overnight at 37 °C in a tissue culture incubator prior to compound addition. Compounds were added in triplicates using an HP D300e Digital Dispenser (Hewlett-Packard) or manually at the concentrations indicated and total volumes were normalized using dimethyl sulfoxide (DMSO) backfill, with final DMSO concentration of 0.5%. Control wells were treated with DMSO only.

[2] = test system: NCI-H929 cell line; assay: cells; details: Homo sapiens, NCI-H929, read-out: NCI-H929 GI50
Experimental: as §1, §2

[3] = Mouse IV PK; details: for AUC/Dose: dose normalized; for clearance: mouse, plasma, iv
Experimental: (§3) For PK analysis, mice and dogs were administered intravenously with compound formulated either in 10% ethanol and 10% Cremophor EL for mice or in 50% ethanol and 50% PEG500 for dogs. Plasma samples were obtained at predefined time points and compound concentrations in plasma were measured by quantitative HPLC-MS/MS using an internal standard. Calibration and quality control samples were prepared using blank plasma from untreated animals. Samples were precipitated with acetonitrile and injected into a HPLC system (Agilent 1200). […] The HPLC was interfaced by ESI operated in positive ionization mode to a triple quadrupole mass spectrometer (6500+ Triple Quad System, SCIEX) operated in multiple reaction monitoring mode. Chromatograms were analyzed with Analyst (SCIEX) and pharmacokinetic parameters were calculated by noncompartmental analysis using proprietary software.

[4] = Dog IV PK; details: dosed at 0.9 mg/kg
Experimental: as §3

Row | clearance ([3]; 25 mg/kg) [mL/min/kg] | AUC/Dose ([3]; mouse IV, dosed at 20 mg/kg) | clearance ([3]; 20 mg/kg) [mL/min/kg] | Structure (SMILES) | also measured
1 | – | – | – | Cc1cc(OCCCc2c3n(c4c(-c5c(C)nn(C)c5C)c(Cl)ccc24)[C@H](C)CN(c2cccc4cc(C(=O)O)n(C)c24)C3=O)cc(C)c1Cl [Compound 10, (R)-7-(7-Chloro-10-(3-(4-chloro-3,5-dimethylphenoxy)propyl)-4-methyl-1-oxo-6-(1,3,5-trimethyl-1H-pyrazol-4-yl)-3,4-dihydropyrazino[1,2-a]indol-2(1H)-yl)-1-methyl-1H-indole-2-carboxylic Acid] | GI50 [1]: > 12500 nM; GI50 [2]: 187 ± 78 nM
2 | 70 | – | – | COc1cc(N2C[C@@H](C)n3c(c(CCCOc4cc(C)c(Cl)c(C)c4)c4ccc(Cl)c(-c5c(C)nn(C)c5C)c43)C2=O)c2c(cc(C(=O)O)n2C)c1OC [Compound 18, (M,R)-7-(7-Chloro-10-(3-(4-chloro-3,5-dimethylphenoxy)propyl)-4-methyl-1-oxo-6-(1,3,5-trimethyl-1H-pyrazol-4-yl)-3,4-dihydropyrazino[1,2-a]indol-2(1H)-yl)-4,5-dimethoxy-1-methyl-1H-indole-2-carboxylic Acid] | AUC/Dose ([3]; mouse IV, dosed at 25 mg/kg): 252 nM*h/mpk
3 | 43 | – | – | COc1cc(N2C[C@@H](C)n3c(c(CCCOc4cc(C)c(Cl)c(C)c4)c4ccc(Cl)c(-c5c(C)ncnc5C)c43)C2=O)c2c(cc(C(=O)O)n2C)c1OC [Compound 19, (R)-7-(7-Chloro-10-(3-(4-chloro-3,5-dimethylphenoxy)propyl)-6-(4,6-dimethylpyrimidin-5-yl)-4-methyl-1-oxo-3,4-dihydropyrazino[1,2-a]indol-2(1H)-yl)-4,5-dimethoxy-1-methyl-1H-indole-2-carboxylic Acid] | GI50 [1]: 7000 nM; GI50 [2]: 32 ± 14 nM; CL ([3]; mouse IV, dosed at 25 mg/kg): 43 mL/min/kg; AUC/Dose ([3]; mouse IV, dosed at 25 mg/kg, 25 mg/kg): 499 nM*h/mpk and 499^c nM*h/mpk; improvement in the mouse IV clearance from (M)-18 ([3]; mouse IV, relative to (M)-18): 2 fold
4 | 7 | 2830^d nM*h/mpk | 7 | COc1c(OCC2CCOCC2)cc(N2C[C@@H](C)n3c(c(CCCOc4cc(C)c(Cl)c(C)c4)c4ccc(Cl)c(-c5c(C)ncnc5C)c43)C2=O)c2c1cc(C(=O)O)n2C [Compound 22, (R)-7-(7-Chloro-10-(3-(4-chloro-3,5-dimethylphenoxy)propyl)-6-(4,6-dimethylpyrimidin-5-yl)-4-methyl-1-oxo-3,4-dihydropyrazino[1,2-a]indol-2(1H)-yl)-4-methoxy-1-methyl-5-((tetrahydro-2H-pyran-4-yl)methoxy)-1H-indole-2-carboxylic Acid] | –
5 | 15 | – | – | COc1c(OC[C@H]2CCCO2)cc(N2C[C@@H](C)n3c(c(CCCOc4cc(C)c(Cl)c(C)c4)c4ccc(Cl)c(-c5c(C)ncnc5C)c43)C2=O)c2c1cc(C(=O)O)n2C [Compound 24, 7-((R)-7-Chloro-10-(3-(4-chloro-3,5-dimethylphenoxy)propyl)-6-(4,6-dimethylpyrimidin-5-yl)-4-methyl-1-oxo-3,4-dihydropyrazino[1,2-a]indol-2(1H)-yl)-4-methoxy-1-methyl-5-(((R)-tetrahydrofuran-2-yl)methoxy)-1H-indole-2-carboxylic Acid] | CL ([3]; mouse IV, dosed at 25 mg/kg): 15 mL/min/kg; AUC/Dose ([3]; mouse IV, dosed at 25 mg/kg): 1476^c nM*h/mpk
6 | 8.9 | 2190^d nM*h/mpk | 8.9 | COc1c(OC[C@@H]2CCCO2)cc(N2C[C@@H](C)n3c(c(CCCOc4cc(C)c(Cl)c(C)c4)c4ccc(Cl)c(-c5c(C)nc(C)nc5C)c43)C2=O)c2c1cc(C(=O)O)n2C [Compound 27, 7-((R)-7-Chloro-10-(3-(4-chloro-3,5-dimethylphenoxy)propyl)-6-(2,4,6-trimethylpyrimidin-5-yl)-4-methyl-1-oxo-3,4-dihydropyrazino[1,2-a]indol-2(1H)-yl)-4-methoxy-1-methyl-5-(((S)-tetrahydrofuran-2-yl)methoxy)-1H-indole-2-carboxylic Acid] | AUC/Dose [4]: 2100 nM*h/mpk; CL [4]: 8.9 mL/min/kg; CL (% hep blood flow) [4]: 29 % hep blood flow
7 | 8.4 | 2510^d nM*h/mpk | 8.4 | COc1c(OC[C@H]2CCCO2)cc(N2C[C@@H](C)n3c(c(CCCOc4cc(C)c(Cl)c(C)c4)c4ccc(Cl)c(-c5c(C)nc(C)nc5C)c43)C2=O)c2c1cc(C(=O)O)n2C [Compound 28, 7-((R)-7-Chloro-10-(3-(4-chloro-3,5-dimethylphenoxy)propyl)-6-(2,4,6-trimethylpyrimidin-5-yl)-4-methyl-1-oxo-3,4-dihydropyrazino[1,2-a]indol-2(1H)-yl)-4-methoxy-1-methyl-5-(((R)-tetrahydrofuran-2-yl)methoxy)-1H-indole-2-carboxylic Acid] | –
8 | 19 | – | – | COc1c(O[C@H]2CCOC2)cc(N2C[C@@H](C)n3c(c(CCCOc4cc(C)c(Cl)c(C)c4)c4ccc(Cl)c(-c5c(C)nc(C)nc5C)c43)C2=O)c2c1cc(C(=O)O)n2C [Compound 29, 7-((R)-7-Chloro-10-(3-(4-chloro-3,5-dimethylphenoxy)propyl)-4-methyl-1-oxo-6-(2,4,6-trimethylpyrimidin-5-yl)-3,4-dihydropyrazino[1,2-a]indol-2(1H)-yl)-4-methoxy-1-methyl-5-(((S)-tetrahydrofuran-3-yl)oxy)-1H-indole-2-carboxylic Acid] | AUC/Dose [4]: 1808 nM*h/mpk; CL [4]: 12 mL/min/kg; CL (% hep blood flow) [4]: 38 % hep blood flow; AUC/Dose ([3]; mouse IV, dosed at 5 mg/kg): 1858^e nM*h/mpk; clearance ([3]; 5 mg/kg): 19 mL/min/kg
9 | 13 | 1425^d nM*h/mpk | 13 | COc1c(O[C@@H]2CCOC2)cc(N2C[C@@H](C)n3c(c(CCCOc4cc(C)c(Cl)c(C)c4)c4ccc(Cl)c(-c5c(C)nc(C)nc5C)c43)C2=O)c2c1cc(C(=O)O)n2C [Compound 30, 7-((R)-7-Chloro-10-(3-(4-chloro-3,5-dimethylphenoxy)propyl)-4-methyl-1-oxo-6-(2,4,6-trimethylpyrimidin-5-yl)-3,4-dihydropyrazino[1,2-a]indol-2(1H)-yl)-4-methoxy-1-methyl-5-(((R)-tetrahydrofuran-3-yl)oxy)-1H-indole-2-carboxylic Acid] | –
10 | 8.7 | 2465^d nM*h/mpk | 8.7 | CCOc1c(O[C@H]2CCOC2)cc(N2C[C@@H](C)n3c(c(CCCOc4cc(C)c(Cl)c(C)c4)c4ccc(Cl)c(-c5c(C)nc(C)nc5C)c43)C2=O)c2c1cc(C(=O)O)n2C [Compound 31, 7-((R)-7-Chloro-10-(3-(4-chloro-3,5-dimethylphenoxy)propyl)-4-methyl-1-oxo-6-(2,4,6-trimethylpyrimidin-5-yl)-3,4-dihydropyrazino[1,2-a]indol-2(1H)-yl)-4-ethoxy-1-methyl-5-(((S)-tetrahydrofuran-3-yl)oxy)-1H-indole-2-carboxylic Acid] | –
11 | 3.7 | 4930^d nM*h/mpk | 3.7 | CCOc1c(OCC2CCOCC2)cc(N2C[C@@H](C)n3c(c(CCCOc4cc(C)c(Cl)c(C)c4)c4ccc(Cl)c(-c5c(C)nc(C)nc5C)c43)C2=O)c2c1cc(C(=O)O)n2C [Compound 32, (R)-7-(7-Chloro-10-(3-(4-chloro-3,5-dimethylphenoxy)propyl)-4-methyl-1-oxo-6-(2,4,6-trimethylpyrimidin-5-yl)-3,4-dihydropyrazino[1,2-a]indol-2(1H)-yl)-4-ethoxy-1-methyl-5-((tetrahydro-2H-pyran-4-yl)methoxy)-1H-indole-2-carboxylic Acid] | –
